US20250302815A1, “PROTEIN TYROSINE PHOSPHATASE TARGETING LIGANDS” (CALICO LIFE SCIENCES LLC, priority 2021, published 2025)

Columns and labels:
[1] = molecular target: T1, PTPN2 (HiBIT-PTPN2 in 293T.109 cells) (Homo sapiens, UniProt P17706); assay: HiBiT Degradation 293T.109 PTPN2 (Nano-Glo HiBiT Lytic Assay); assay type: cell-based; conditions: 24.0 hours
T1 construct: expressed in transfected cells; host or cells: 293T.109 (293T WT from ATCC)
T1 sequence (P17706 1-415): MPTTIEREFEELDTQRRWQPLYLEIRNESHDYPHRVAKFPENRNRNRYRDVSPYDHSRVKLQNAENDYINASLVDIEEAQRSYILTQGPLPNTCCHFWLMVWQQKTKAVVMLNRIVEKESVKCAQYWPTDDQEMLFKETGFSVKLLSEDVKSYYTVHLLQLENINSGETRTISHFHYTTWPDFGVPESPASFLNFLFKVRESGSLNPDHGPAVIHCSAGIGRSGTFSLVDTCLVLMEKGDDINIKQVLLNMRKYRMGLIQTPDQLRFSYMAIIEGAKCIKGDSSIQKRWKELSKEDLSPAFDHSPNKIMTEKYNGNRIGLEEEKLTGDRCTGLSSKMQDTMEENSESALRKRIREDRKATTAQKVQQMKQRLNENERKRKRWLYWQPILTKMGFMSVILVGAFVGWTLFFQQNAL
Method in brief: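 Degradation read-out: lytic HiBiT luminescence after 24 h treatment (37 °C, 5% CO2) of 5000 293T cells per well expressing HiBiT-fused PTPN2 from an N-terminal tag. Dosing was 11 points, half-log steps down from 10 μM, in duplicate; vehicle-treated and no-reagent wells served as controls.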

PTPN2 (B16F10.4 cells) = molecular target: T2, PTPN2 (B16F10.4 cells) (Mus musculus, UniProt Q06180); assay: HiBiT Degradation B16F10.4 PTPN2; assay type: cell-based; conditions: 24.0 hours
T2 construct: HiBiT; host or cells: B16F10.4
T2 sequence (Q06180 1-406): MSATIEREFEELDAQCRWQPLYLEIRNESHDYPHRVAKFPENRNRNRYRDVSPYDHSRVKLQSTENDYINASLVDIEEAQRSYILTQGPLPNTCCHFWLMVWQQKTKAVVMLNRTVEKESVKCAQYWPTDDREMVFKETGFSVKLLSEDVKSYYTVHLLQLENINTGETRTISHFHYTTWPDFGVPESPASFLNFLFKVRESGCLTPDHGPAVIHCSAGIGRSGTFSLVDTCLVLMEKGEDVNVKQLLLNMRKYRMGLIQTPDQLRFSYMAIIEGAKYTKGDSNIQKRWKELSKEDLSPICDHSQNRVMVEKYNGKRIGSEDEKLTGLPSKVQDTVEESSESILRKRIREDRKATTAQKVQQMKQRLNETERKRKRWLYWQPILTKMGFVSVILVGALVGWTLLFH

Compound | DC50 [1] [nM] | DC50 (PTPN2 (B16F10.4 cells)) [nM]
CC1(C)C[C@@H](Nc2cccc(-c3sc(C(=O)O)c(OCC(=O)O)c3Cl)c2)CCN1S(=O)(=O)Cc1cccc(NC(=O)N2CCC(c3ccc4c(c3)CCN4C3CCC(=O)NC3=O)CC2)c1 (stereo partly drawn) [Example 94, 3-(carboxymethoxy)-4-chloro-5-[3-[[(4S)-1-[[3-[[4-[1-(2,6-dioxo-3-piperidyl)indolin-5-yl]piperidine-1-carbonyl]amino]phenyl]methylsulfonyl]-2,2-dimethyl-4-piperidyl]amino]phenyl]thiophene-2-carboxylic acid] | 200 to 1000 | 200 to 1000
CC1Cc2cc(C3CCN(C(=O)Nc4cccc(CS(=O)(=O)N5CC[C@H](Nc6cccc(-c7sc(C(=O)O)c(OCC(=O)O)c7Cl)c6)CC5(C)C)c4)CC3)ccc2N1C1CCC(=O)NC1=O (stereo partly drawn) [Example 95, 3-(carboxymethoxy)-4-chloro-5-[3-[[(4S)-1-[[3-[[4-[1-(2,6-dioxo-3-piperidyl)-2-methyl-indolin-5-yl]piperidine-1-carbonyl]amino]phenyl]methylsulfonyl]-2,2-dimethyl-4-piperidyl]amino]phenyl]thiophene-2-carboxylic acid] | 200 to 1000 | 200 to 1000
CC1(C)C[C@@H](Nc2cccc(-c3sc(C(=O)O)c(OCC(=O)O)c3Cl)c2)CCN1S(=O)(=O)Cc1cccc(NC(=O)OC2CN(C(=O)CNc3cccc4c3CN(C3CCC(=O)NC3=O)C4=O)C2)c1 (stereo partly drawn) [Example 96, 3-(carboxymethoxy)-4-chloro-5-[3-[[(4S)-1-[[3-[[1-[2-[[2-(2,6-dioxo-3-piperidyl)-1-oxo-isoindolin-4-yl]amino]acetyl]azetidin-3-yl]oxycarbonylamino]phenyl]methylsulfonyl]-2,2-dimethyl-4-piperidyl]amino]phenyl]thiophene-2-carboxylic acid] | 50 to 200 | 200 to 1000
CC1(C)C[C@@H](Nc2cccc(-c3sc(C(=O)O)c(OCC(=O)O)c3Cl)c2)CCN1S(=O)(=O)Cc1cccc(NC(=O)C2C[C@@H]3CN(C(=O)CNc4cccc5c4CN(C4CCC(=O)NC4=O)C5=O)C[C@@H]3C2)c1 (stereo partly drawn) [Example 97, 5-[3-[[(4S)-1-[[3-[[(3aR,6aS)-2-[2-[[2-(2,6-dioxo-3-piperidyl)-1-oxo-isoindolin-4-yl]amino]acetyl]-3,3a,4,5,6,6a-hexahydro-1H-cyclopenta[c]pyrrole-S-carbonyl]amino]phenyl]methylsulfonyl]-2,2-dimethyl-4-piperidyl]amino]phenyl]-3-(carboxymethoxy)-4-chloro-thiophene-2-carboxylic acid] | 200 to 1000 | ≥ 1000
CC1(C)C[C@@H](Nc2cccc(-c3sc(C(=O)O)c(OCC(=O)O)c3Cl)c2)CCN1S(=O)(=O)Cc1cccc(NC(=O)[C@H]2[C@@H]3CN(C(=O)CNc4cccc5c4CN(C4CCC(=O)NC4=O)C5=O)C[C@@H]32)c1 (some centres unmarked) [Example 98] | 50 to 200 | 200 to 1000
Cn1c(=O)n(C2CCC(=O)NC2=O)c2ccc(C3CCN(C(=O)Nc4cccc(CS(=O)(=O)N5CCC(Nc6cccc(-c7sc(C(=O)O)c(OCC(=O)O)c7Cl)c6)CC5)c4F)CC3)cc21 (centres unmarked) [Example 99, 3-(carboxymethoxy)-4-chloro-5-[3-[[1-[[3-[[4-[1-(2,6-dioxo-3-piperidyl)-3-methyl-2-oxo-benzimidazol-5-yl]piperidine-1-carbonyl]amino]-2-fluoro-phenyl]methylsulfonyl]-4-piperidyl]amino]phenyl]thiophene-2-carboxylic acid] | 50 to 200 | < 50
CC1(C)C[C@@H](Nc2cccc(-c3sc(C(=O)O)c(OCC(=O)O)c3Cl)c2)CCN1S(=O)(=O)Cc1cccc(NC(=O)C2C[C@@H]3CN(C(=O)COc4cccc5c4CN(C4CCC(=O)NC4=O)C5=O)C[C@@H]3C2)c1 (some centres unmarked) [Example 100] | 200 to 1000 | 200 to 1000
CC1(C)C[C@@H](Nc2cccc(-c3sc(C(=O)O)c(OCC(=O)O)c3Cl)c2)CCN1S(=O)(=O)Cc1cccc(NC(=O)[C@H]2[C@@H]3CN(C(=O)COc4cccc5c4CN(C4CCC(=O)NC4=O)C5=O)C[C@@H]32)c1 (some centres unmarked) [Example 101] | 50 to 200 | 50 to 200
Cn1c(=O)n(C2CCC(=O)NC2=O)c2ccc(N3CCC4(CC3)CN(C(=O)Nc3cccc(CS(=O)(=O)N5CCC(Nc6cccc(-c7sc(C(=O)O)c(OCC(=O)O)c7Cl)c6)CC5)c3)C4)cc21 (centres unmarked) [Example 102, 3-(carboxymethoxy)-4-chloro-5-[3-[[1-[[3-[[7-[1-(2,6-dioxo-3-piperidyl)-3-methyl-2-oxo-benzimidazol-5-yl]-2,7-diazaspiro[3.5]nonane-2-carbonyl]amino]phenyl]methylsulfonyl]-4-piperidyl]amino]phenyl]thiophene-2-carboxylic acid] | 50 to 200 | 50 to 200
Cn1c(=O)n(C2CCC(=O)NC2=O)c2ccc(C3CCN(C(=O)Nc4cccc(CS(=O)(=O)N5CCC(Oc6cccc(-c7sc(C(=O)O)c(OCC(=O)O)c7Cl)c6)CC5)c4)CC3)cc21 (centres unmarked) [Example 103, 3-(Carboxymethoxy)-4-chloro-5-[3-[[1-[[3-[[4-[1-(2,6-dioxo-3-piperidyl)-3-methyl-2-oxo-benzimidazol-S-yl]piperidine-1-carbonyl]amino]phenyl]methylsulfonyl]-4-piperidyl]oxy]phenyl]thiophene-2-carboxylic acid] | 200 to 1000 | 50 to 200
Cn1c(=O)n(C2CCC(=O)NC2=O)c2ccc(C3CCN(C(=O)Nc4cc(CS(=O)(=O)N5CCC(Nc6cccc(-c7sc(C(=O)O)c(OCC(=O)O)c7Cl)c6)CC5)ccc4F)CC3)cc21 (centres unmarked) [Example 104, 3-(carboxymethoxy)-4-chloro-5-[3-[[1-[[3-[[4-[1-(2,6-dioxo-3-piperidyl)-3-methyl-2-oxo-benzimidazol-5-yl]piperidine-1-carbonyl]amino]-4-fluoro-phenyl]methylsulfonyl]-4-piperidyl]amino]phenyl]thiophene-2-carboxylic acid] | 50 to 200 | < 50
Cn1c(=O)n(C2CCC(=O)NC2=O)c2ccc(N3CCC(OCC(=O)Nc4cccc(CS(=O)(=O)N5CC[C@H](Nc6cccc(-c7sc(C(=O)O)c(OCC(=O)O)c7Cl)c6)CC5(C)C)c4)CC3)cc21 (stereo partly drawn) [Example 105, 3-(carboxymethoxy)-4-chloro-5-[3-[[(4S)-1-[[3-[[2-[[1-[1-(2,6-dioxo-3-piperidyl)-3-methyl-2-oxo-benzimidazol-5-yl]-4-piperidyl]oxy]acetyl]amino]phenyl]methylsulfonyl]-2,2-dimethyl-4-piperidyl]amino]phenyl]thiophene-2-carboxylic acid] | 50 to 200 | 200 to 1000
Cn1c(=O)n(C2CCC(=O)NC2=O)c2ccc(C3CN(C(=O)Nc4cccc(CS(=O)(=O)N5CC[C@H](Nc6cccc(-c7sc(C(=O)O)c(OCC(=O)O)c7Cl)c6)CC5(C)C)c4)C3)cc21 (stereo partly drawn) [Example 106, 3-(carboxymethoxy)-4-chloro-5-[3-[[(4S)-1-[[3-[[3-[1-(2,6-dioxo-3-piperidyl)-3-methyl-2-oxo-benzimidazol-5-yl]azetidine-1-carbonyl]amino]phenyl]methylsulfonyl]-2,2-dimethyl-4-piperidyl]amino]phenyl]thiophene-2-carboxylic acid] | 50 to 200 | 50 to 200
Cn1c(=O)n(C2CCC(=O)NC2=O)c2ccc(N3CC(OCC(=O)Nc4cccc(CS(=O)(=O)N5CC[C@H](Nc6cccc(-c7sc(C(=O)O)c(OCC(=O)O)c7Cl)c6)CC5(C)C)c4)C3)cc21 (stereo partly drawn) [Example 107, 3-(carboxymethoxy)-4-chloro-5-[3-[[(4S)-1-[[3-[[2-[1-[1-(2,6-dioxo-3-piperidyl)-3-methyl-2-oxo-benzimidazol-5-yl]azetidin-3-yl]oxyacetyl]amino]phenyl]methylsulfonyl]-2,2-dimethyl-4-piperidyl]amino]phenyl]thiophene-2-carboxylic acid] | 50 to 200 | 200 to 1000
CC1(C)C[C@H](Nc2cccc(-c3sc(C(=O)O)c(OCC(=O)O)c3Cl)c2)CCN1S(=O)(=O)Cc1ccc(F)c(NC(=O)C2CN(C(=O)CNc3cccc4c3CN(C3CCC(=O)NC3=O)C4=O)C2)c1 (some centres unmarked) [Example 108] | 50 to 200 | ≥ 1000
CC1(C)C[C@@H](Nc2cccc(-c3sc(C(=O)O)c(OCC(=O)O)c3Cl)c2)CCN1S(=O)(=O)Cc1ccc(F)c(NC(=O)C2CN(C(=O)CNc3cccc4c3CN(C3CCC(=O)NC3=O)C4=O)C2)c1 (some centres unmarked) [Example 109] | < 50 | 200 to 1000
